# Columns and labels:
# [1] = Antibiotic elution from sterilized chitosan sponges in PBS (TDx); format: physicochemical; conditions: for effect of a co-loaded antibiotic on release from chitosan sponge: sponges hydrated with 5 mg/ml single or combined antibiotics, 20 ml PBS
# Procedure: In a preferred approach adopted for use in the goat wound treatment model described in Example 2, 2.5 grams of chitosan was dissolved in 247.5 ml of 1 (v/v) % blended acid solvent. The mixture contained 75%/25% lactic to acetic acid. This mixture was stirred for 4-6 hours at maximum allowable speed on a stir plate. The chitosan solution was filtered to remove undissolved chitosan. 25 ml of chitosan solution was pipetted into small aluminum weigh dishes ([…]). Each dish was frozen at […] freezer for 1 hour. The frozen samples were then placed into a freeze-dryer and lyophilize for 48 hours. Sponge samples were neutralized in 0.175 M NaOH— solution for ˜30-40 seconds. The sponges were rinsed repeatedly in containers filled with distilled water and pH changes were monitored until the rinsing water was neutral in pH. The re-hydrated sponges were then incubated at −80 C freezer for 1 hour and re-lyophilized for 24-48 hours. The sponges were then sterilized using low-dose gamma irradiation at Wright Medical (25-32 kGy).
# Sponges were subjected to elution tests by submerging hydrated sponges into 20 ml of 1× Phosphate Buffered Saline (PBS), kept in a 37° C. incubator for the duration of the study. […] One ml aliquots were taken at 1, 3, 6, 24, 48, and 72 hours. Aliquots were tested for antibiotic concentration using a fluorescence polarization immunoassay technique (TDx, Abbott Labs, Abbott Park, IL).
# [2] = Amikacin and vancomycin elution from sterilized chitosan films; format: physicochemical; conditions: films soaked in 5 mg/ml antibiotic 2 minutes, 50 ml sterile saline, refreshed
# Procedure: Agent elution from chitosan films was also analyzed (FIG. 1C). Sterilized chitosan films were loaded with amikacin and vancomycin. […] The elution was done in 50 ml of sterile saline solution and completely refreshed at each time point. The elution was carried out for 3 days. The values shown in FIG. 1C are expressed in μg/ml.
# Elution data from chitosan films is provided at Table 4. […] The elution was done in 50 ml of sterile saline solution and completely refreshed at each time point. The elution was carried out for 3 days. The values shown on the graph are in μg/ml.
# In one approach, samples were submerged into 15 ml amikacin solution (5 mg/ml) and allowed to hydrate for 2 minutes. Samples were then subjected to elution tests by submerging the films in 50 ml of 1× Phosphate Buffered Saline (PBS) and agitated in a 37 C incubator for the duration of the study. One ml aliquots were removed at 1, 3, 6, 24, 48, and 72 hours. Aliquots were tested for antibiotic concentration using a fluorescence polarization immunoassay technique (TDxFLx, Abbott Labs, Abbott Park, IL).
# Pseudomonas aeruginosa = assay: Turbidity/growth assay of sponge elution samples against Pseudomonas aeruginosa; format: cell-based; conditions: eluate of amikacin-loaded 61/71 DDA chitosan sponge
# Procedure: To determine whether agents eluted from the sponges could be used to inhibit bacterial growth, zone of inhibition (ZOI) studies were carried out (FIGS. 3A-3D). Chitosan sponges loaded with a single antibiotic or combinations of antibiotics, as above, were analyzed for their ability to inhibit bacterial growth. For the assays to determine inhibition of bacterial growth, the bacterial strains Pseudomonas aeruginosa and Staphylococcus aureus were used. Results showing the inhibition of Pseudomonas aeruginosa and Staphylococcus aureus are shown at Tables 2 and 3, respectively.
# Drug activity of the aliquots was tested using a turbidity assay. Two different strains of bacteria were used in this study. Vancomycin samples were tested against Staphylococcus aureus and amikacin samples were tested against both Staphylococcus aureus and Pseudomonas aeruginosa. 200 μl of each aliquot was added to 1.8 ml of Mueller-Hinton II broth combined with 20 μl of S. aureus inoculum. Amikacin samples (200 μl) were also added to 1.75 ml of trypticase soy broth (TSB) and 50 μl of P. aeruginosa inoculum. Samples were incubated for 24 hours at 37 C. Absorbance measurements were recorded after incubation at a wavelength of 530 nm (A530).
# Drug activity of the aliquots was tested using a turbidity assay. Samples were tested against Pseudomonas aeruginosa. […] Absorbance measurements at 530 nm on a spectrophotometer (BioTek).
# [3] = Antibiotic elution from sponge fragments retrieved from goats; format: physicochemical, goat
# Excerpt: Sponge fragments remained in 8 of the 10 goats treated with chitosan sponges.
# in vivo = conditions: goat
# [4] = system: S. aureus (Cowan I strain); assay: Turbidity assay of film eluates against S. aureus; format: cell-based, Staphylococcus aureus; conditions: 48 and 72 hr eluate samples from chitosan films
# Procedure: In other studies, antibiotic activity against S. aureus (Cowan I strain) was determined by utilizing the remaining antibiotic elution samples, in triplicate, in a turbidity assay. In this turbidity study, solution clarity after sufficient bacterial incubation with antibiotic eluates indicated bacterial inhibition due to antibiotic activity.
# Blanks containing neither S aureus nor eluate samples, positive controls containing S aureus without antibiotic eluates, and negative controls containing both S aureus and high concentration antibiotic standards were mixed and incubated at 37° C. along with the eluate samples. After 24 hours of incubation, the tubes were vortexed and the absorbance at 530 nm of each inoculum solution was recorded using a spectrophotometer.
# [5] = 5 mg/ml solution (sponge loading)
Structure (SMILES),effect of a co-loaded antibiotic on release from chitosan sponge [1],elution from sterilized chitosan films ([2]; 1 hour) [µg/mL],elution from sterilized chitosan films ([2]; 3 hours) [µg/mL],elution from sterilized chitosan films ([2]; 6 hours) [µg/mL],elution from sterilized chitosan films ([2]; 24 hours) [µg/mL],elution from sterilized chitosan films ([2]; 48 hours) [µg/mL],elution from sterilized chitosan films ([2]; 72 hours) [µg/mL],inhibition of S. aureus growth by film eluates [4],also measured
NCC[C@H](O)C(=O)N[C@@H]1C[C@H](N)[C@@H](O[C@H]2O[C@H](CN)[C@@H](O)[C@H](O)[C@H]2O)[C@H](O)[C@H]1O[C@H]1O[C@H](CO)[C@@H](O)[C@H](N)[C@H]1O [amikacin],vancomycin nor daptomycin affected the release of amikacin,50.63 ± 4.49,2.15 ± 1.13,3.17 ± 1.14,3.93 ± 0.57,4.7 ± 2.49,0.6 ± 0.48,,"Bacterial growth inhibition of P. aeruginosa (Pseudomonas aeruginosa; after 72 hours): 93.1%; Bacterial growth inhibition of P. aeruginosa (Pseudomonas aeruginosa; after one hour): 98.7%; 12 hr TDx reading, antibiotic elution from remaining sponge fragments, Mean ([3]; goat, 12 h): 0.60 µg/mL/g; concentration at 6 h (in vivo): 526 ± 478 ng/mL; concentration at 12 h (in vivo): 200 ng/mL; concentration at 24 h (in vivo): 200 ng/mL; concentration at 36 h (in vivo): 200 ng/mL; concentration at 42 h (in vivo): 200 ng/mL"
CCCCCCCCCC(=O)N[C@@H](Cc1c[nH]c2ccccc12)C(=O)N[C@H](CC(N)=O)C(=O)N[C@@H](CC(=O)O)C(=O)N[C@@H]1C(=O)NCC(=O)N[C@@H](CCCN)C(=O)N[C@@H](CC(=O)O)C(=O)N[C@H](C)C(=O)N[C@@H](CC(=O)O)C(=O)NCC(=O)N[C@H](CO)C(=O)N[C@@H]([C@H](C)CC(=O)O)C(=O)N[C@@H](CC(=O)c2ccccc2N)C(=O)O[C@@H]1C [daptomycin],Amikacin did not affect the release of daptomycin,,,,,,,active in inhibiting the growth of S. aureus,"release from chitosan sponge compared with the other tested antibiotics ([1]; 72 hour time point, sponges hydrated with 5 mg/ml, one antibiotic per sponge): significantly less than the other two tested antibiotics"
CN[C@H](CC(C)C)C(=O)N[C@H]1C(=O)N[C@@H](CC(N)=O)C(=O)N[C@H]2C(=O)N[C@H]3C(=O)N[C@H](C(=O)N[C@H](C(=O)O)c4cc(O)cc(O)c4-c4cc3ccc4O)[C@H](O)c3ccc(c(Cl)c3)Oc3cc2cc(c3O[C@@H]2O[C@H](CO)[C@@H](O)[C@H](O)[C@H]2O[C@H]2C[C@](C)(N)[C@H](O)[C@H](C)O2)Oc2ccc(cc2Cl)[C@H]1O [vancomycin],amikacin did not affect the release of vancomycin,83.45 ± 17.25,19.35 ± 7.98,0.58 ± 0.88,2.53 ± 0.66,9.72 ± 1.92,6.13 ± 0.39,active in inhibiting the growth of S. aureus,"12 hr TDx reading, antibiotic elution from remaining sponge fragments, Mean ([3]; mean of 4 goats, fragments retrieved after 42 hours in vivo, 20 ml sterile saline, 37° C., 12 hours): 3.78 µg/mL/g; concentration at 6 h (in vivo; [5]): 1630 ± 646 ng/mL; concentration at 12 h (in vivo; [5]): 703 ± 348 ng/mL; concentration at 24 h (in vivo; [5]): 845 ± 539 ng/mL; concentration at 36 h (in vivo; [5]): 740 ± 477 ng/mL; concentration at 42 h (in vivo; [5]): 275 ± 70 ng/mL"

# From patent publication US12251444B2, “Compositions and methods for delivering an agent to a wound” (priority 2009, dated 2025)
